Results taken from patent US20250179022A1, “COMPOUND USED AS TYK2 INHIBITOR, PREPARATION METHOD THEREFOR, AND PHARMACEUTICAL USE THEREOF” (SHANGHAI ZHIGEN PHARMACEUTICAL & TECHNOLOGY CO. LTD., priority 2022, published 2025).
Blank lines part the entries; values can stand above or below the molecule they belong to.

Experiments:
[1] = target: T1, TYK2 (Homo sapiens, UniProt P29597, E957D); test: TYK2 kinase activity inhibition assay (Ba/F3-FL-TYK2-E957D cell proliferation, CellTiter-Glo); assay type: cell-based; settings: 72 h
T1 construct: host or cells: Ba/F3 (murine B lymphocytes)
T1 sequence (P29597 whole entry E957D): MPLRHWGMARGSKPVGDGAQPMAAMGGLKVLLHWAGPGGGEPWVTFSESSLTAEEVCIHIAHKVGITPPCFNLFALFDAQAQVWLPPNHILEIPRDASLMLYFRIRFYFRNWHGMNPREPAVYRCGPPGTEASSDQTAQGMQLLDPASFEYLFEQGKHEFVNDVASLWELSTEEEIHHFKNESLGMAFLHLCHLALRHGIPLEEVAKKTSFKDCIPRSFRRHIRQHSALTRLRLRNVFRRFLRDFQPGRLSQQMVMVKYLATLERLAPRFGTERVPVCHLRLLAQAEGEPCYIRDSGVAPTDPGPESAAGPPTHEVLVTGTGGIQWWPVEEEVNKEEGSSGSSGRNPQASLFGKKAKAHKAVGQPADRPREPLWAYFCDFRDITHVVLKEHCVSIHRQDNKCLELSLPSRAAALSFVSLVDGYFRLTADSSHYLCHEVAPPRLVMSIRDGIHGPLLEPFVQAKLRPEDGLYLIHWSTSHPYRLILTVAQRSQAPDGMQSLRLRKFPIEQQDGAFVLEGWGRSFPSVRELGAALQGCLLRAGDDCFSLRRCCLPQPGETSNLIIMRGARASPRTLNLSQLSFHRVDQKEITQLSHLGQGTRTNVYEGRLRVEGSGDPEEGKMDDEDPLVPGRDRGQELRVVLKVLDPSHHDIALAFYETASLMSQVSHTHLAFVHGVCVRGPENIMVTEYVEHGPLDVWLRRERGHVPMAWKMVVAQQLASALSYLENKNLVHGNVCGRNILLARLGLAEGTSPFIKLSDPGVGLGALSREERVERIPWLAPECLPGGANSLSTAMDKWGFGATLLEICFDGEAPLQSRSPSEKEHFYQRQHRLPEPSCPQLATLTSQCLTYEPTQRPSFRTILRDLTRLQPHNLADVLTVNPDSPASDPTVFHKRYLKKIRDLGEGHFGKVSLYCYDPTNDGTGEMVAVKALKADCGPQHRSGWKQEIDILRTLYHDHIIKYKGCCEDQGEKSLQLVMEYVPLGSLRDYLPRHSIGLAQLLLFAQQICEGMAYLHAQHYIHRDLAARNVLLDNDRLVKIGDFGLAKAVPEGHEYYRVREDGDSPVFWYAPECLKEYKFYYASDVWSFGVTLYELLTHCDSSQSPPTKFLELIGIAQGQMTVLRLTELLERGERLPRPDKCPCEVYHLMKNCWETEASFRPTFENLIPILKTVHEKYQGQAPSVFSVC
Procedure: The TYK2 kinase gene was introduced into wild-type murine-derived B lymphocytes (BaF3) to construct the Ba/F3-FL-TYK2-E957D stable cell line.
In this experiment, the inhibitory effect of the compounds on the proliferation of Ba/F3-FL-TYK2-E957D cells were tested, apoptosis was detected, and the IC50 value was calculated. The inhibitory activity of the compounds against TYK2 kinase was evaluated based on the IC50 value.
The tested compounds, powder and stored at room temperature, were prepared into 10 mM stock solution with DMSO and stored at −20° C. away from light for use.
Compounds were prepared into dilute solutions which was 1000 times of the final concentration. The compound was prepared into 20-times of the final concentration by diluting the compound with culture medium. 2 ul of 1000-times compound was added to per well to 98 ul of culture medium.
Cells (provided by Sundia Pharmaceutical Technology (Shanghai) Co., Ltd.) were resuspended and counted using an automated cell counter. The cell suspension was diluted to the desired density based on BaF3 seeding density of 2000 cells per well. Each well was plated with 95 ul of cells and incubated at 37° C. for stable equilibrium. 5 ul of 20-times compound was added to each well, with the wells to which the same volume of DMSO was added as a control.
The cell plate was equilibrated to room temperature. 40 ul CellTiter-Glo® Reagent was added to each well, shaken for 2 minutes and allowed to stand for 10 minutes. Detected with SpectraMax Paradigm.
• (1) IC50 was calculated using GraphPad Prism 5. • (2) % Inh=(Max signal−Compound signal)/(Max signal−Min signal)×100. • (3) Max signal was the positive control well with only the same volume of DMSO as the compound. • (4) Min signal was the negative control well with only the culture medium.

[2] = test system: IFN-α-induced STAT phosphorylation; test: IFN-α-induced STAT phosphorylation in human whole blood; assay type: cell-based; settings: human whole blood, 20 ng/ml IFN-α, pSTAT5 in CD3-positive cells; read-out: IC50, IFN-α inflammatory pathway (IFN-α-induced STAT phosphorylation)
Text: The cytokine receptor attached to TYK2 mediates the signaling of type 1 interferon (IFN-α), which has been identified as the most important inflammatory factor of the autoimmune system. Human whole blood is induced with IFN-α, and TYK2 from lymphocytes in whole blood triggered STAT phosphorylation, which mediated subsequent inflammatory signaling. Therefore, TYK2 inhibitors have an inhibitory effect on IFN-α signaling, and the stronger the TYK2 inhibitory activity, the lower the level of STAT phosphorylation, and the stronger the corresponding anti-inflammatory effect.
In this experiment, the ability of the compounds to inhibit IFN-α-induced STAT phosphorylation in human whole blood were tested, and the IC50 values were calculated. The anti-inflammatory activity of the compounds was evaluated at the tissue level and evaluation of the inhibitory activity of compounds on the IFN-α inflammatory pathway based on the IC50 value.
The tested compound, powder and stored at room temperature, prepared into 10 mM stock solution with DMSO and stored at −80° C. in the refrigerator.
1× Fix/Lysis solution preparation: 5× Fix/Lysis and ddH2O were diluted according to 1:4 and preheated in 37° C. incubator, waiting for use.
Flow cytometric staining buffer preparation: 1 g of bovine serum albumin (BSA) and 1 mL of EDTA (0.5 M) solution were added to 500 mL of phosphate buffer solution (PBS) and stored at 4° C. in the refrigerator.
Compound dilution solution: 0.5 g of bovine serum albumin (BSA) was added to 500 mL of phosphate buffer solution (PBS), and stored at 4° C. in the refrigerator.
50 μg/mL IFN-alpha was diluted to 400 ng/mL with Compound Diluent and set aside.
67.5 μL of human whole blood was added to a 96-well plate using a 300 μL electric volley gun. 3.5 μL of prepared test compound was added, mixed well and placed in the cell culture incubator. After 60 min incubation, 400 ng/mL IFN-α (Biolegend 592702, final concentration 20 ng/ml) was added. The obtained was mixed well and placed in the cell culture incubator to continue incubation for 15 min.
After cytokine stimulation, 5 ul of PE-CD3 (BD 555333) antibody was added to each well, mixed and incubation was continued at 4° C. in the refrigerator. At the end, whole blood was transferred to a 96-well deep-well plate using a volley gun, pre-warmed 1× Fix/Lysis solution was added, and cells were lysed and fixed for 12 minutes at 37° C. in an incubator. After being washed, 400 μL of Perm III solution was added, vortexed and incubated on ice for 30 minutes. Cells were then stained by 100 μL of APC-pSTAT5 (1:100) antibody for 50 min at room temperature. This was followed by flow-through instrumentation. The expression of pSTAT5 was quantified by median fluorescence intensity after gating the CD3-positive signaling cluster.

[3] = In vivo pharmacokinetic experiments in Beagle dogs (oral); settings: for Cmax / MRT / half-life: male, dog, plasma
Procedure: Experimental Methods: Healthy male Beagle dogs were randomly grouped into 3 […] in each group, and were given the test compounds orally. Before the gavage experiment, the dogs were fasted for 12 h, drank water freely, and were uniformly fed for 4 h after the administration of the drug. 0.083, 0.25, 0.5, 1.0, 2.0, 4.0, 6.0, 8.0, 10 and 24 h after administration; about 600 μL of blood was collected from the forelimb or hindlimb at the above set time points and placed in EDTA-K2 tubes, and the whole blood was collected and stored temporarily in an ice-water bath, and then centrifuged at least 3500 rpm for 10 min within 30 min, and the plasma was separated and frozen in a −70° C. refrigerator for testing.

[4] = In vivo pharmacokinetic experiment in rats (oral); set-up: species or system SD rats; settings: 20 mg/kg
Procedure: Experimental method: Healthy male SD rats were randomly grouped into 3 rats in each group and given the test compound orally. The rats were fasted for 12 h before the gavage experiment, and drank water freely, and were fed uniformly for 4 h after the administration of the compounds. Before (0 h) and 0.25, 0.5, 1.0, 2.0, 4.0, 6.0, 8.0 and 24 h after the administration of the test compounds, 0.2 mL of blood was collected from the jugular vein at the above set time points and placed in EDTA-K2 tubes, and the whole blood was collected and stored temporarily in an ice-water bath, and then centrifuged at 11,000 rpm for 5 min within 30 min, the plasma was separated, and frozen at −70° C. in a refrigerator for testing.

SMILES: CN=S(C)(=O)c1cc2cc[nH]c2nc1Nc1cc(NC(=O)C2CC2)nnc1C(=O)NC (centres unmarked) [Example 31, 6-(cyclopropylcarboxamido)-4-((5-(N,S-dimethylsulfoximino)-1H-pyrrolo[2,3-b]pyridin-6-yl)amino)-N-methylpyridazine-3-carboxamide]
- IC50 [1]: 1.1 nM

SMILES: CN=S(C)(=O)c1ccc(N)nc1Nc1cc(NC(=O)C2CC2)nnc1C(=O)NC (centres unmarked) [Example 7, 4-((6-amino-3-(N,S-dimethylsulfoximino)pyridin-2-yl)amino)-6-(cyclopropylcarboxamido)-N-methylpyridazine-3-carboxamide]
- IC50 [2]: 22.1 nM

SMILES: CN=S(C)(=O)c1cc(F)c(N)nc1Nc1cc(NC(=O)C2CC2)nnc1C(=O)NC (centres unmarked) [Example 22, 4-((6-amino-3-(N,S-dimethylsulfoximino)-5-fluoropyridin-2-yl)amino)-6-(cyclopropylcarboxamido)-N-methylpyridazine-3-carboxamide]
- IC50 [2]: 13 nM

SMILES: CN=S(C)(=O)c1cc2c(Cl)c(Cl)[nH]c2nc1Nc1cc(NC(=O)C2CC2)nnc1C(=O)NC (centres unmarked) [Example 33, 6-(cyclopropylamido)-4-((2,3-dichloro-5-(N,S-dimethylsulfoximino)-1H-pyrrolo[2,3-b]pyridin-6-yl)amino)-N-methylpyridazine-3-carboxamide]
- IC50 [1]: 1.2 nM

SMILES: [2H]C([2H])([2H])NC(=O)c1nnc(NC(=O)C2CC2)cc1Nc1ncccc1S(C)(=O)=NC (centres unmarked) [Example 2, 6-(cyclopropylcarboxamido)-4-((3-(N,S-dimethylsulfoximino)pyridin-2-yl)amino)-N-(methyl-d3)pyridazine-3-carboxamide]
- IC50 [1]: 2.4 nM

SMILES: [2H]C([2H])([2H])NC(=O)c1nnc(NC(=O)C2CC2)cc1Nc1nc(N)c(Br)cc1[S@@](C)(=O)=NC [Example 30, (R)-4-((6-amino-5-bromo-3-(N,S-dimethylsulfoximino)pyridin-2-yl)amino)-6-(cyclopropylformyl)-N-(methyl-d3)pyridazine-3-carboxamide]
- AUC ([3]; 2 mg/kg): 8454 ngh/mL
- Cmax ([3]; 2 mg/kg): 625 ng/mL
- MRT ([3]; 2 mg/kg): 11.8 h
- half-life ([3]; 2 mg/kg): 8.61 h

SMILES: [2H]C([2H])([2H])N=[S@](C)(=O)c1cc(Cl)c(N)nc1Nc1cc(NC(=O)C2CC2)nnc1C(=O)NC([2H])([2H])[2H] [Example 40, (R)-4-((6-amino-5-chloro-3-(S-methyl-N-(methyl-d3)sulfonylimino)pyridin-2-yl)amino)-6-(cyclopropylcarboxamide)-N-(methyl-d3)pyridazine-3-carboxamide]
- IC50 [1]: 0.4 nM
- AUC [4]: 22029 ngh/mL
- F [4]: 109%
- Cmax ([4]; male, SD, rat, plasma): 2950 ng/mL
- MRT ([4]; male, SD, rat, plasma): 4.7 h
- half-life ([4]; male, SD, rat, plasma): 2.65 h
- AUC ([3]; 10 mg/kg): 79882 ngh/mL
- F ([3]; 10 mg/kg): 136.6%
- Cmax ([3]; 10 mg/kg): 4850 ng/mL
- MRT ([3]; 10 mg/kg): 12.7 h
- half-life ([3]; 10 mg/kg): 9.28 h

SMILES: [2H]C([2H])([2H])N=[S@](C)(=O)c1cc(Br)c(N)nc1Nc1cc(NC(=O)C2CC2)nnc1C(=O)NC([2H])([2H])[2H] [Example 41, (R)-4-((6-amino-5-bromo-3-(S-methyl-N-(methyl-d3)sulfonylimino)pyridin-2-yl)amino)-6-(cyclopropylcarboxamide)-N-(methyl-d3)pyridazine-3-carboxamide]
- IC50 [1]: 0.4 nM

SMILES: CN=S(C)(=O)c1cc(OC)cnc1Nc1cc(NC(=O)C2CC2)nnc1C(=O)NC (centres unmarked) [Example 14, 6-(cyclopropylamido)-4-((3-(N,S-dimethylsulfoximino)-5-methoxypyridin-2-yl)amino)-N-methylpyridazine-3-carboxamide]
- IC50 [1]: 3.7 nM

SMILES: CN=S(C)(=O)c1cc(Br)cnc1Nc1cc(NC(=O)C2CC2)nnc1C(=O)NC (centres unmarked) [Example 13, 4-((5-bromo-3-(N,S-dimethylsulfoximino)pyridin-2-yl)amino)-6-(cyclopropylcarboxamido)-N-methylpyridazine-3-carboxamide]
- IC50 [1]: 3.9 nM

SMILES: CN=S(C)(=O)c1cc(OCCCOC)cnc1Nc1cc(NC(=O)C2CC2)nnc1C(=O)NC (centres unmarked) [Example 16, 6-(cyclopropylcarboxamido)-4-((3-(N,S-dimethylsulfoximino)-5-(3-methoxypropoxy)pyridin-2-yl)amino)-N-methylpyridazine-3-carboxamide]
- IC50 [1]: 3.5 nM

Now from value to molecule:

- IC50 [1]: 0.1 nM
SMILES: [2H]C([2H])([2H])N=[S@](C)(=O)c1cc(C#CC2CC2)c(N)nc1Nc1cc(NC(=O)C2CC2)nnc1C(=O)NC([2H])([2H])[2H] [Example 46]

- IC50 [1]: 0.3 nM
SMILES: [2H]C([2H])([2H])N=[S@](C)(=O)c1cc(C=C)c(N)nc1Nc1cc(NC(=O)C2CC2)nnc1C(=O)NC([2H])([2H])[2H] [Example 44, (R)-4-((6-amino-3-(S-methyl-N-(methyl-d3)sulfonylimino)-5-vinylpyridin-2-yl)amino)-6-(cyclopropylcarboxamide)-N-(methyl-d3)pyridazine-3-carboxamide]

- IC50 [1]: 0.1 nM
SMILES: [2H]C([2H])([2H])N=[S@](C)(=O)c1cc(C#CC)c(N)nc1Nc1cc(NC(=O)C2CC2)nnc1C(=O)NC([2H])([2H])[2H] [Example 45, (R)-4-((6-amino-3-(S-methyl-N-(methyl-d3)sulfonylimino)-5-(propynyl-1-yl)pyridin-2-yl)amino)-6-(cyclopropylcarboxamide)-N-(methyl-d3)pyridazine-3-carboxamide]

- IC50 [1]: 0.4 nM
SMILES: [2H]C([2H])([2H])N=[S@](C)(=O)c1cc(I)c(N)nc1Nc1cc(NC(=O)C2CC2)nnc1C(=O)NC([2H])([2H])[2H] [Example 42, (R)-4-((6-amino-5-iodo-3-(S-methyl-N-(methyl-d3)sulfonylimino)pyridin-2-yl)amino)-6-(cyclopropylcarboxamide)-N-(methyl-d3)pyridazine-3-carboxamide]

- IC50 [1]: 1.1 nM
SMILES: [2H]C([2H])([2H])N=[S@](C)(=O)c1cc(C2CC2)c(N)nc1Nc1cc(NC(=O)C2CC2)nnc1C(=O)NC([2H])([2H])[2H] [Example 43, (R)-4-((6-amino-5-cyclopropyl-3-(S-methyl-N-(methyl-d3)sulfonylimino)pyridin-2-yl)amino)-6-(cyclopropylcarboxamide)-N-(methyl-d3)pyridazine-3-carboxamide]
